According to EP0665223A1, “Antitumor agent, novel 3(2H)-pyridazinone derivatives and their preparation” (TAKEDA CHEMICAL INDUSTRIES, LTD., priority 1994, dated 1995):

How the values were obtained:
[1] = test system: pancreatic cancer cell AsPC-1; assay: Suppressing proliferation of pancreatic cancer cell AsPC-1 in vitro (MTT, number of living cells); assay type: cell-based; conditions: Homo sapiens, ASPC1, 72 h, AsPC-1, RPMI 1640 medium, incubated 3 days with test compound
Procedure: (§1) A cell suspension of pancreatic cancer cell AsPC-1 (20000/ml) in RPMI 1640 medium (Flow Laboratories) supplemented with 10% of inactivated fetal calf serum, 1 mM of sodium pyruvate and 25 mM of HEPES [2-{4-(2-hydroxyethyl)-1-piperazinyl}ethanesulfonic acid] was added to 96-well micro-culture plates (50ul/well). The culture plates were incubated at 37°C in a 5% CO₂ incubator. On the following day, the solution of each test compound dissolved in dimethylformamide and diluted (3-fold steps) was added (50 ul/well), which was incubated for further 3 days. The culture broth containing the test compounds was eliminated, and the cells were washed, to which was added a solution of MTT pigment, and the number of living cells was calculated [Tada et al. J. Immunol. Methods, 93 p.157 (1986)]. The number of cells in the control group containing no test compound was assumed to be 100%, and the respective ratios of cell numbers in groups containing the respective test compounds were calculated to thereby determine the concentrations (IC₅₀ value) of the respective test compounds necessary to suppress the number of living cells to 50% of that of the control group.

[2] = test system: pancreatic cancer cell strain PC-3; assay: Suppressing proliferation of PC-3 cells in vitro (MTT, number of living cells); assay type: cell-based; conditions: 96 h, PC-3, F-12K medium, incubated 4 days with test compound
Procedure: as §1
For the test of pancreatic cancer cell strain PC-3, the same method in the case of AcPC-1 was employed excepting the use of F-12K medium containing 10% inactivated fetal calf serum (Flow Laboratories) and change of the incubation period after adding the test compounds to 4 days, to thereby determine the IC₅₀ value (nm).

[3] = test system: human pancreatic carcinoma cells AsPC-1; assay: Suppressing proliferation of pancreatic carcinoma in vivo (AsPC-1 transplanted subcutaneously into nude mice, tumor volume); parameters: species or system Balb/c nude mice; conditions: once for two days during 14 days, tumor volume of treated group to control group
Procedure: The human pancreatic carcinoma cells AsPC-1 (3x10⁶cells) were transplanted subcutaneously into Balb/c nude mice (7 week old) at the flank. On 35th day after the transplantation, the tumor size was measured. Five mice (per group) with almost the same tumor size were employed for the experiment. These groups were respectively administered intraperitoneally with No. 1, 2 and 19 of the compounds of this invention dissolved in corn oil, once for two days during 14 days. On the day following the completion of administration, the tumor size was measured, and the tumor volume was calculated by the formula: Tumor volume = major axis x minor axis x minor axis x (1/2) [formula] . The ratio of the tumor volume in the treated group to that in a control group to which corn oil alone was administered was calculated as a proliferation ratio.

[4] = Dosage 16.7 mg/kg intraperitoneally in corn oil

| SMILES | IC50 [1] | IC50 [2] | Proliferation ratio (%) ([3]; Dosage 6.7 mg/kg intraperitoneally in corn oil) | Proliferation ratio (%) [3, 4] |
| --- | --- | --- | --- | --- |
| CC(C)(C)c1ccc(CSc2cnn(C(C)(C)C)c(=O)c2Cl)cc1 [Compound 1, 2-t-butyl-4-chloro-5-(4-t-butyl)benzylthio-3(2H)pyridanzine] | 16 nM | < 1.52 nM | 56% |  |
| CC(C)(C)n1ncc(SCc2ccccc2)c(Cl)c1=O [Compound 2, 2-t-butyl-4-chloro-5-benzylthio-3 (2H)pyridazinone] | 440 nM | 120 nM |  | 48% |
| CC(C)(C)c1ccc(COc2cnn(C(C)(C)C)c(=O)c2Cl)cc1 [Compound 19, 2-t-butyl-4-chloro-5-(4-t-butyl)benzyloxy-3(2H)pyridazinone] | 180 nM | < 1.52 nM |  | 29% |
